From ChEMBL document CHEMBL1125828 (J Med Chem, 1991)

Assays:
[1] = molecular target: GABA-A receptor; anion channel; assay: Inhibition of [3H]GABA binding to gamma-aminobutyric-acid A (GABA-A) receptor; assay type: protein-complex assay, Rattus norvegicus
GABA B receptor = GABA B receptor (Rattus norvegicus, UniProt O88871+Q9Z0U4); assay: Displacement of [3H]baclofen from gamma-aminobutyric-acid B receptor; assay type: protein-complex assay
GABA B receptor, sequence (Q9Z0U4 whole entry): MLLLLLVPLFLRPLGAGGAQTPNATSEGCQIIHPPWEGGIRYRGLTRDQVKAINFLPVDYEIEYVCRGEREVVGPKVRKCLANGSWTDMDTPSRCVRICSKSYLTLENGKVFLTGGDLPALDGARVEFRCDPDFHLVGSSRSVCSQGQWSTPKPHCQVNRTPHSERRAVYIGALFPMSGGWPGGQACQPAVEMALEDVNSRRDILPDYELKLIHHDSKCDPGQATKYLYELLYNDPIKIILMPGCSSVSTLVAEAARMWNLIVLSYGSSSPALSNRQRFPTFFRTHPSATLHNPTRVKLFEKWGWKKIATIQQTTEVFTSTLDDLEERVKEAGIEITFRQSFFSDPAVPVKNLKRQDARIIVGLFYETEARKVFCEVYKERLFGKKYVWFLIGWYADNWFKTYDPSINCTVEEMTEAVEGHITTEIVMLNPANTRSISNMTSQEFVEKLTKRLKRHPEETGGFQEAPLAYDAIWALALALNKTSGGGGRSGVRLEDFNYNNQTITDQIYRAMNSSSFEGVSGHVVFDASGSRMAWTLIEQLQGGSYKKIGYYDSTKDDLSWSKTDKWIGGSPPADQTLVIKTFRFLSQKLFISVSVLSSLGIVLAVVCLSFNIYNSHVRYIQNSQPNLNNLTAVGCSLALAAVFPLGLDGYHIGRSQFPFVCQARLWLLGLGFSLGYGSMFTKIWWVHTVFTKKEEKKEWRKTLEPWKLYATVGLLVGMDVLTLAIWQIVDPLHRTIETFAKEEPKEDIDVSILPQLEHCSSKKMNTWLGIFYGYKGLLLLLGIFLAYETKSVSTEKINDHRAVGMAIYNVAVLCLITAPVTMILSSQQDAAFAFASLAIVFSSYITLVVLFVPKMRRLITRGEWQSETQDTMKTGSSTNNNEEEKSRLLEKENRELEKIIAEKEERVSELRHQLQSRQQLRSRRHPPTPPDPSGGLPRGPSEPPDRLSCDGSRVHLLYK
GABA B receptor, sequence (O88871 whole entry): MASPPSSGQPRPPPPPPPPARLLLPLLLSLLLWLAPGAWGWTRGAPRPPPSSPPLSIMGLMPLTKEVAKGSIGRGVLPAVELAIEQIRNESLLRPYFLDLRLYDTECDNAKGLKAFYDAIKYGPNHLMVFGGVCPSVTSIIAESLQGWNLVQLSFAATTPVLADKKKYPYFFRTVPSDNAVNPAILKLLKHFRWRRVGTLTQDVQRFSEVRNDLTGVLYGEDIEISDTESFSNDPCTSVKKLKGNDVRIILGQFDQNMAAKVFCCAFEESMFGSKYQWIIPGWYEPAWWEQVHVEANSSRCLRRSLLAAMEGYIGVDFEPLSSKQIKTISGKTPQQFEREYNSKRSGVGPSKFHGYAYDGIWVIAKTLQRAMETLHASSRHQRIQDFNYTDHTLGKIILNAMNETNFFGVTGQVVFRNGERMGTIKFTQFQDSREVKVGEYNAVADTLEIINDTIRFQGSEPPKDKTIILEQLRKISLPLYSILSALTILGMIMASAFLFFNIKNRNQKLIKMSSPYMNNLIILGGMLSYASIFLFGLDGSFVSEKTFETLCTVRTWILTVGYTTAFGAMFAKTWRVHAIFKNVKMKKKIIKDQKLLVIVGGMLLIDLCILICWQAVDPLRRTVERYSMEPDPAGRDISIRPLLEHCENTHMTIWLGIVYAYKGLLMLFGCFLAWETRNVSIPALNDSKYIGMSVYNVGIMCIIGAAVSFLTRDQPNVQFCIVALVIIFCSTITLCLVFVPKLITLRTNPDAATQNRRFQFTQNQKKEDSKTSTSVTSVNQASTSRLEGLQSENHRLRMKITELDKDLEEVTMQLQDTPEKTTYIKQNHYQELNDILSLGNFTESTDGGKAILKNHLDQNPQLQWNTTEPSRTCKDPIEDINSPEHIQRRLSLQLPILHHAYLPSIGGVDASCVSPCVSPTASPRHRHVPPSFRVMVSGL

Row | SMILES | IC50 [1] | IC50 (GABA B receptor)
1 | NCC(CC(=O)O)c1ccc(Cl)cc1Cl (configuration not stated) | > 100 µM | 11 µM
2 | NCC1(CC(=O)O)CCCc2ccccc21 (configuration not stated) | > 100 µM | > 100 µM
3 | NCC(CC(=O)O)c1c(Cl)cccc1Cl (configuration not stated) | > 100 µM | > 100 µM
4 | NCC1(CC(=O)O)CCc2ccccc21 (configuration not stated) | > 100 µM | > 100 µM
5 | NCC1(CC(=O)O)Cc2ccccc21 (configuration not stated) | > 100 µM | > 100 µM
6 | NCC1(CC(=O)O)CCc2cc(Cl)ccc21 (configuration not stated) | > 100 µM | > 100 µM
